Measurements reported in patent US20040220220A1, “Method for treating inflammatory bowel disease” (priority 2001, published 2004).
Where “and” joins values, the source holds several entries; their conditions need not be identical. Equal entries are not always repeated.

Legend:
BEAS-2B epithelial cells = experiment: IP-10/RANTES production in BEAS-2B cells exposed to HRV-16; type: cell-based; details: 48 hr
Method: Cells of the BEAS-2B epithelial cell line were preincubated for either 6 hr or 24 hr with varying concentrations of HCQ. Cells were then exposed to human rhinovirus type 16 (HRV-16) which was left on the cells in the presence and absence of HCQ at the concentrations indicated for 48 hr. The data is depicted in Table 2 and FIG. 13.

leukocytes = details: ex vivo and in vitro experiments; cited from earlier work
[1] = conventional oral doses 4-6 mg/kg/day, after 3 months therapy, two clinical trials; cited from earlier work
[2] = tested on: neutrophil, macrophages, T cell; details: at concentrations in the range obtained by targeted delivery; cited from earlier work
[3] = Single-dose intravenous HCQ pharmacokinetics in rats; type: in vivo; details: for Tmax / Vd / clearance / half-life / AUC(0-inf) / Cmax / AUC(0-t): both sexes, rat, whole blood; for Tmax / Vd / clearance / AUC(0-inf) / Cmax / AUC(0-t): single day; for half-life: 2-compartment model, read-out: Apparent Terminal t1/2 (converted); for AUC(0-t): read-out: AUC0-23
Method: Twelve rats per dose group (six M: six F) received hydroxychloroquine sulfate, USP as an intravenous bolus injected over 30 minutes.
Following the single injection, blood samples were drawn from rat pairs at one, three, six, 12, 24, 36, 48, 192, 360, and 1,032 hours.

[4] = tested on: Primary Human Epithelial Cells (tonsillar); experiment: IP-10/RANTES production in primary epithelial cells exposed to HRV-16; type: cell-based
Method: Primary cultures of harvested human tonsillar epithelial cells were preincubated for 24 hr with 50 microM HCQ. The cells were then exposed to human rhinovirus type 16 (HRV-16) which was left on the cells in the presence and absence of HCQ. Medium was recovered at two different time post infection (24 hr viral incubation and 48 hr viral incubation) and assayed for IP-10 and RANTES. The data is depicted in Table 1 below and in FIG. 5.

Human eosinophils [5] = experiment: IL-5 stimulated eosinophil degranulation, EDN release by DARIA; type: cell-based
Description: FIG. 2 graphically depicts the effect of HCQ on IL-5 stimulated eosinophil degranulation as measured by release of eosinophil-derived neurotoxin. In this figure, EDN refers to eosinophil-derived neurotoxin.
(§1) Human eosinophils were isolated from atopic and non-atopic donors using density centrifugation and CD16-magnetic bead negative selection. Eosinophil purity was always>93%.
The general procedure described hereinabove and Example 1 was followed. Supernatants from superoxide assay samples were analyzed for EDN by Double-Antibody Radioimmunoassay (DARIA). The results are depicted in FIG. 2.

[6] = lupus erythematosus and rheumatoid arthritis; cited from earlier work
[7] = tested on: human tracheal epithelial cells; experiment: Pro-inflammatory mRNA in tracheal epithelial cultures infected with RV16, RT-PCR; type: cell-based; details: 50 microM HCQ, RV16 infection
Method: Differentiated cultures of human tracheal cells grown at an air liquid interface were pre-incubated for 12h with 50 microM HCQ prior to 12 h infection with human rhinovirus type 16 (HRV-16). Twelve hours after removal of virus, levels of mRNA for RANTES, ICAM-1, IL-1beta, TNF-alpha and IL-6 were quantified using multiplex two-step (TaqMan) RT-PCR. The results are depicted in FIGS. 6-10.
(§2) FIG. 6 graphically depicts the effects of HCQ on the release of RANTES (regulated on activation normal T-cell expressed and secreted) in cultured human tracheal epithelial cells. In the figure, RV16-p3 refers to the rhinovirus strain. Human tracheal epithelial cells were cultured for 14 days in serum-free growth media. On day 14, the cultures were divided into four groups. Two groups were pre-treated for 6 hours with HCQ (final concentration 50 microM) in media administered via the basolateral side. Then RV-16-p3 at a tissue culture infectious dose (TCID50) of 10^6/ml was added to one of groups receiving HCQ and one of thgroups not pretreated with HCQ. Phosphate buffered saline (PBS) was added to the other two groups, creating four conditions: media alone (control), HCQ alone, RV-16-p3 alone and RV-16-p3+HCQ. After six hours, the experimental suspensions were removed and the cells were washed three times with PBS. Cells were allowed to recover for 24h and then the mucosal surfaces of the culture inserts were flushed with 500 microL of PBS and the flushings were retained.
The filters containing the cell sheets were cut in half and placed in RLT buffer (Rneasy lysis buffer) or fixed in 10% buffered formalin prior to their preparation for fluorescence in situ hybridization (FISH) and gene expression analysis as described in detail elsewhere (Lopez-Souza N, et al., Resistance of differentiated human airway epithelium to infection by rhinovirus, Am J Physiol Lung Cell Mol Physiol, 2004;286:L373-81). Levels of mRNA for RANTES were determined in cell lysates using a two-step method of gene transcript profiling in which multiplex RT-PCR is combined with individual gene quantification via real-time PCR on generated cDNA product.
as §2, with “FIG. 7” for “FIG. 6”, “the upregulation” for “the release”, “of for intercellular adhision molecule 1 (ICAM-1)” for “of RANTES (regulated on activation normal T-cell expressed and secreted)”, “strain. ICAM refers to intracellular adhesion molecule 1.” for “strain.”, “of the groups” for “of thgroups”
FIG. 8 graphically depicts the effects of HCQ on the release of IL-1beta and TNF-alpha in cultured human tracheal epithelial cells. In the figure, RV16-p3 refers to the rhinovirus strain. IL-1 beta refers to Interleukin-1 beta. […]

[8] = Single-dose intravenous HCQ pharmacokinetics in dogs; type: in vivo, Beagle dogs; details: for AUC(0-inf) / Cmax / AUC(0-t) / half-life / Tmax / Vd / clearance: both sexes, beagle, dog, whole blood; for AUC(0-inf) / Cmax / AUC(0-t) / Tmax / Vd / clearance: single day; for AUC(0-t): read-out: AUC0-23; for half-life: 2-compartment model, read-out: Apparent terminal t1/2 (converted)
Method: Two Beagle dogs per dose group (one M: one F) received hydroxychloroquine sulfate, USP as an intravenous bolus infusion over 30 minutes.
Following the single injection, blood samples were drawn at one, two, three, five, six, seven, eight, 12, 18, 24, 36, 120, 192, 264, 360, 528, 696, 864 and 1,032 hours.

[9] = asthma, oral HCQ; cited from earlier work
Human eosinophils [10] = experiment: IL-5 stimulated eosinophil survival by flow cytometry; type: cell-based; details: 100 pg/ml IL-5, four days, compared with dexamethasone
Method: as §1
Flow cytometry was performed on a Becton Dickenson FACScan. Data was analyzed using CellQuest software. For cell surface marker determination, specific antibodies directly conjugated with the fluorescent indicator, phycoerythrin (PE) were utilized.
The general procedure described hereinabove was followed. Eosinophils were incubated with 100 pg/ml IL-5 with or without dexamethasone or HCQ. After four days, eosinophil viability was measured by flow cytometry. The results are depicted in FIG. 3.

Human eosinophils [11] = experiment: Eosinophil extracellular superoxide production (cytochrome c); type: cell-based; details: 1 hr pretreatment at 37° C.; IL-5 or PAF stimulus
Method: as §1
Statistical analyses were performed using the Student's paired t-test; significance defined as p value<0.05 compared to “nil” or 0.0 microM HCQ.
The general procedure described hereinabove was followed. Eosinophils were pretreated with HCQ for 1 hr at 37° C. and then stimulated as described in FIG. 1 in 96-well plates (50,000 cells/well). Extracellular superoxide was detected using cytochrome c and a 96-well plate reader.

[12] = rats, intravenous, 10 mg/kg/day

In the case of `CCN(CCO)CCCC(C)Nc1ccnc2cc(Cl)ccc12` (centres unmarked) [HCQ, hydroxychloroquine], the “IP-10: 6 hrs preincubation” value (BEAS-2B epithelial cells; HRV-16 + 0.01 mM HCQ) is reported as 3084 pg/mL, the “IP-10: 24 hrs preincubation” value (BEAS-2B epithelial cells; HRV-16 + 0.01 mM HCQ) is reported as 2506 pg/mL and the “RANTES: 6 hrs preincubation” value (BEAS-2B epithelial cells; HRV-16 + 0.01 mM HCQ) is reported as 3326 pg/mL. The “IP-10: 6 hrs preincubation” value (BEAS-2B epithelial cells; HRV-16 + 0.1 mM HCQ) was 2914 pg/mL, the “IP-10: 24 hrs preincubation” value (BEAS-2B epithelial cells; HRV-16 + 0.1 mM HCQ) was 1814 pg/mL and the “RANTES: 6 hrs preincubation” value (BEAS-2B epithelial cells; HRV-16 + 0.1 mM HCQ) was 3128 pg/mL. For the same compound, the “IP-10: 6 hrs preincubation” value (BEAS-2B epithelial cells; HRV-16 + 1 mM HCQ) was 3045 pg/mL, the “IP-10: 24 hrs preincubation” value (BEAS-2B epithelial cells; HRV-16 + 1 mM HCQ) was 2098 pg/mL and the “RANTES: 6 hrs preincubation” value (BEAS-2B epithelial cells; HRV-16 + 1 mM HCQ) was 1994 pg/mL. The “IP-10: 6 hrs preincubation” value (BEAS-2B epithelial cells; HRV-16 + 50 mM HCQ) was 31 pg/mL, the “IP-10: 24 hrs preincubation” value (BEAS-2B epithelial cells; HRV-16 + 50 mM HCQ) was 31 pg/mL and the “RANTES: 6 hrs preincubation” value (BEAS-2B epithelial cells; HRV-16 + 50 mM HCQ) was 0 pg/mL. The “incubation time to effect on leukocytes” value (leukocytes) was “less than 1 hour”, the “therapeutic benefit in IBD” value [1] was “in neither was a consistent therapeutic benefit evident” and the “neutrophil and macrophage superoxide release, macrophage release of TNF-alpha, IL-6, Interferon-gamma and T cell activation” value [2] was “inhibited”. The Tmax ([3]; rats, intravenous, 5 mg/kg/day) was 0.5 h, the Vd ([3]; rats, intravenous, 5 mg/kg/day) was 11.1 L/kg and the clearance ([3]; rats, intravenous, 5 mg/kg/day) was 20 mL/min/kg. For the same compound, the half-life ([3]; rats, intravenous, 5 mg/kg/day) was 7.5 h, the Tmax [3, 12] was 0.5 h and the Vd [3, 12] was 11.2 L/kg. For the same compound, the clearance [3, 12] was 21.7 mL/min/kg, the half-life [3, 12] was 7.4 h and the AUC(0-inf) ([3]; rats, intravenous, 5 mg/kg/day) was 6560 ng·h/mL. The Cmax ([3]; rats, intravenous, 5 mg/kg/day) was 1020 ng/mL, the AUC(0-t) ([3]; rats, intravenous, 5 mg/kg/day) was 4050 ng·h/mL and the AUC(0-inf) [3, 12] was 11000 ng·h/mL. The Cmax [3, 12] was 1740 ng/mL, the AUC(0-t) [3, 12] was 7220 ng·h/mL and the “peak concentrations as fraction of those required” value ([3]; rats and dogs, intravenous, versus concentrations needed for in vitro effects) was 1/100. For the same compound, the peak serum concentrations ([3]; rats, intravenous 10 mg/kg) was 2 µg/mL, the “IP-10: hrs of preincubation 24” value ([4]; HRV-16 + 50 microM HCQ, 24) was 31 pg/mL and the “IP-10: hrs of preincubation 48” value ([4]; HRV-16 + 50 microM HCQ, 48) was 112 pg/mL. The “RANTES: hrs of preincubation 48” value ([4]; HRV-16 + HCQ, 48) was 509 pg/mL, the “HCQ concentration at which eosinophil degranulation is inhibited” value (Human eosinophils [5]) was greater than 100 µM and the onset of action [6] was 3-4 months. The “release of IL-1beta” value [7] was “rapidly block”, the “release of IL-6” value [7] was “rapidly block” and the “release of IL-8” value [7] was “rapidly block”. For the same compound, the “release of TNF-alpha” value [7] was “rapidly block”, the “up-regulation of ICAM-1” value [7] was “rapidly block” and the “peak whole blood concentrations” value [8] was “less than 3 mcg/ml”. The AUC(0-inf) ([8]; 5 mg/kg/day) was 24200 ng·h/mL, the Cmax ([8]; 5 mg/kg/day) was 1200 ng/mL and the AUC(0-t) ([8]; 5 mg/kg/day) was 8160 ng·h/mL. The AUC(0-inf) ([8]; 10 mg/kg/day) was 82100 ng·h/mL, the Cmax ([8]; 10 mg/kg/day) was 2700 ng/mL and the AUC(0-t) ([8]; 10 mg/kg/day) was 30900 ng·h/mL. For the same compound, the half-life ([8]; 5 mg/kg/day) was 20.8 h, the Tmax ([8]; 5 mg/kg/day) was 0.5 h and the Vd ([8]; 5 mg/kg/day) was 9.1 L/kg. It also gave a clearance ([8]; 5 mg/kg/day) of 5 mL/min/kg, a half-life ([8]; 10 mg/kg/day) of 35 h and a Tmax ([8]; 10 mg/kg/day) of 0.5 h. The Vd ([8]; 10 mg/kg/day) was 6.1 L/kg, the clearance ([8]; 10 mg/kg/day) was 1.67 mL/min/kg and the “treatment time before therapeutic effect begins” value [9] was 24-26 weeks. The eosinophil survival (Human eosinophils [10]) was “actively shortens eosinophil survival, to a much greater extent than a comparative dose of dexamethasone” and the “HCQ concentration at which IL-5 or PAF induced eosinophil superoxide is inhibited” value (Human eosinophils [11]) was “at least 0.5 mM and ≥ 200 mcg/ml”.
